Reference: patent publication US20160194358A1, “LINEAR PEPTIDE ANTIBIOTCS” (priority 2013, published 2016)
Converted amounts (≈) assume the structure as drawn. Where two headings read alike, the source gives them in different places. Where a SMILES comes first, the peptide text is derived from it. [ ]: non-standard residue; d: D form. The star is where a group is joined. boroAla((+)-pinanediol) = C[C@H](N*)B1O[C@@H]2C[C@@H]3C[C@@H](C3(C)C)[C@]2(C)O1; Benzenesulfonyl(4-Ph) = O=S(=O)(c1ccc(-c2ccccc2)cc1)*; Benzoyl(4-(4-Cl-Ph)) = O=C(c1ccc(-c2ccc(Cl)cc2)cc1)*; Ethanesulfonyl(2-NHDecyl) = CCCCCCCCCCNCCS(=O)(=O)*; Propanoyl(3-decylamino) = CCCCCCCCCCNCCC(=O)*; X18 = CCCCc1ccc(-c2ccc(S(=O)(=O)*)cn2)cc1; X34 = CCCCc1ccc(-c2ccc(S(=O)(=O)*)cc2)cc1; X30 = CCCCc1ccc(-c2ncc(C(=O)*)cn2)cc1; AlaCOCOOMe = COC(=O)C(=O)[C@H](C)N*; X26 = CCCCCCCCc1ccc(C(=O)*)c(C)c1; X36 = CC(C)C#CC#Cc1ccc(C(=O)*)cc1; NDecylGly = CCCCCCCCCCNCC(=O)O; X19 = CCCCCCCCCCN(C)CCC(=O)*; X22 = C[C@H](N*)C(=O)C(=O)O; Decanoyl = CCCCCCCCCC(=O)*; X37 = C[C@H](N*)B1OCCNCCO1; X17 = CCCCCCCCCNCCCC(=O)*; X7 = C[C@H](N*)C(=O)C1CO1; boroAla = C[C@H](N*)B(O)O; Dab = NCC[C@H](N)C(=O)O; X24 = CCCCCCCCNCCC(=O)*; Dap = NC[C@H](N)C(=O)O

Assays:
[1] = system: Escherichia coli strain MC4100 IMP-4213, which harbors an LptD mutation; conditions: E. coli MC4100 IMP-4213; 35° C., 22 hours
Description: (§1) In vitro antimicrobial activity of each compound was determined by measuring minimal inhibitor concentrations (MICs) using the broth micro-dilution technique as approved by the Clinical and Laboratory Standards Institute (CLSI). Antibacterial activity was measure against two strains of bacteria: 1) methicillin resistant Staphylococcus aureus (MRSA) strain USA300 (NRS384) and 2) Escherichia coli strain MC4100 IMP-4213, which harbors an LptD mutation. Bacterial inocula were prepared by scraping cells into 1 mL of testing media (cation adjusted Mueller Hinton Broth supplemented with 0.002% v/v Tween-80) and diluting to a final OD600nm of 0.01.
(§2) Test compounds were prepared in DMSO at a concentration of 10 mg/ml. These compound stocks were diluted into testing media at a concentration of 64 μg/ml and 9 serial 1:2 dilutions were made in the same media, in 96-well U bottom microtiter dishes. Bacterial inocula were added to the two fold serial dilutions of test compounds to a final density of OD OD600nm of 0.0005 and incubated stationarily at 35° C. for 22 hours, after which the plates were examined visually.

[2] = system: methicillin resistant Staphylococcus aureus (MRSA) strain USA300 (NRS384)
Description: as §1, §2

[3] = MRSA USA300 (NRS384), 35° C., 22 hours

SMILES | MIC (μg/mL) E. coli [1] [µg/mL] | MIC (μg/mL) S. aureus [2, 3] [µg/mL] | MIC (μg/mL) S. aureus ([2]; USA300, 22 h) [µg/mL]
C[C@H](NC(=O)[C@H](CCCCN)NC(=O)[C@H](C)NC(=O)[C@@H](NC(=O)[C@H](CCCCN)NS(=O)(=O)c1ccc(-c2ccccc2)cc1)[C@@H](C)O)B1O[C@@H]2C[C@@H]3C[C@@H](C3(C)C)[C@]2(C)O1 [Compound 133] ({Benzenesulfonyl(4-Ph)}-KTAK-{boroAla((+)-pinanediol)}) | >64 | 8 (≈ 9.22 µM) | 
CCCCCCCCc1ccc(C(=O)N[C@@H](CCCCN)C(=O)N[C@H](C(=O)N[C@@H](C)C(=O)N[C@@H](CCCCN)C(=O)N[C@@H](C)B2O[C@@H]3C[C@@H]4C[C@@H](C4(C)C)[C@]3(C)O2)[C@@H](C)O)c(C)c1 [Compound 274] (X26-KTAK-{boroAla((+)-pinanediol)}) | 0.5 (≈ 0.567 µM) | 0.13 (≈ 0.147 µM) | 
CCCCCCCCCCNCCS(=O)(=O)N[C@@H](CCN)C(=O)N[C@H](C(=O)N[C@@H](C)C(=O)N[C@@H](CCCCN)C(=O)N[C@@H](C)C(=O)C(=O)OC)[C@@H](C)O [Compound 252] ({Ethanesulfonyl(2-NHDecyl)}-[Dab]TAK-AlaCOCOOMe) | 64 (≈ 82.2 µM) |  | 1 (≈ 1.28 µM)
CCCCCCCCCCNCCNCC(=O)N[C@H](C(=O)N[C@@H](C)C(=O)N[C@@H](CCCCN)C(=O)N[C@@H](C)B1O[C@@H]2C[C@@H]3C[C@@H](C3(C)C)[C@]2(C)O1)[C@@H](C)O [Compound 244] | 64 (≈ 83.8 µM) | 0.87 (≈ 1.14 µM) | 
CCCCc1ccc(-c2ccc(S(=O)(=O)N[C@@H](CCN)C(=O)N[C@H](C(=O)N[C@@H](C)C(=O)N[C@@H](CCCCN)C(=O)N[C@@H](C)B(O)O)[C@@H](C)O)cn2)cc1 [Compound 233] (X18-[Dab]TAK-boroAla) | 8 (≈ 10.5 µM) | 2 (≈ 2.62 µM) | 
CCCCCCCCCCNCC(=O)N[C@@H](CCCCN)C(=O)N[C@H](C(=O)N[C@@H](C)C(=O)N[C@@H](CCCCN)C(=O)N[C@@H](C)B1O[C@@H]2C[C@@H]3C[C@@H](C3(C)C)[C@]2(C)O1)[C@@H](C)O [Compound 230] (H-[NDecylGly]KTAK-{boroAla((+)-pinanediol)}) | 32 (≈ 37.7 µM) | 0.36 (≈ 0.424 µM) | 
CCCCc1ccc(-c2ncc(C(=O)N[C@@H](CCN)C(=O)N[C@@H](CCCCN)C(=O)N[C@@H](C)C(=O)N[C@@H](CCCCN)C(=O)N[C@@H](C)B3O[C@@H]4C[C@@H]5C[C@@H](C5(C)C)[C@]4(C)O3)cn2)cc1 [Compound 271] (X30-[Dab]KAK-{boroAla((+)-pinanediol)}) | 0.13 (≈ 0.146 µM) | 0.25 (≈ 0.281 µM) | 
CCCCCCCCCCN(C)CCC(=O)N[C@@H](CCCCN)C(=O)N[C@H](C(=O)N[C@@H](C)C(=O)N[C@@H](CCCCN)C(=O)N[C@@H](C)B1O[C@@H]2C[C@@H]3C[C@@H](C3(C)C)[C@]2(C)O1)[C@@H](C)O [Compound 240] (X19-KTAK-{boroAla((+)-pinanediol)}) | 32 (≈ 36.5 µM) | 1.4 (≈ 1.6 µM) | 
CCCCc1ccc(-c2ccc(CN(CCCN)C(=O)N[C@H](C(=O)N[C@@H](C)C(=O)N[C@@H](CCCCN)C(=O)N[C@@H](C)B3OC4C[C@@H]5C[C@@H](C5(C)C)[C@]4(C)O3)[C@@H](C)O)cc2)cc1 (stereo partly shown) [Compound 132] | 32 (≈ 37.8 µM) | 5.7 (≈ 6.74 µM) | 
CCCCCCCCNCCC(=O)N[C@@H](CCCCN)C(=O)N[C@H](C(=O)N[C@@H](C)C(=O)N[C@@H](CCCCN)C(=O)N[C@@H](C)B1O[C@@H]2C[C@@H]3C[C@@H](C3(C)C)[C@]2(C)O1)[C@@H](C)O [Compound 226] (X24-KTAK-{boroAla((+)-pinanediol)}) | >64 | 6.3 (≈ 7.55 µM) | 
COC(=O)C(=O)[C@H](C)NC(=O)[C@H](CCCCN)NC(=O)[C@H](C)NC(=O)[C@@H](NC(=O)[C@H](CCN)NC(=O)c1ccc(-c2ccc(Cl)cc2)cc1)[C@@H](C)O [Compound 246] ({Benzoyl(4-(4-Cl-Ph))}-[Dab]TAK-AlaCOCOOMe) | >64 | 2.3 (≈ 3.08 µM) | 
CCCCCCCCCC(=O)NCC(=O)N[C@H](C(=O)N[C@@H](C)C(=O)N[C@@H](CCCCN)C(=O)N[C@@H](C)B1O[C@@H]2C[C@@H]3C[C@@H](C3(C)C)[C@]2(C)O1)[C@@H](C)O [Compound 258] (Decanoyl-GTAK-{boroAla((+)-pinanediol)}) | >64 | 8 (≈ 10.9 µM) | 
CCCCCCCCCCNCCC(=O)N[C@@H](CCCCN)C(=O)N[C@H](C(=O)N[C@@H](C)C(=O)N[C@@H](CCCCN)C(=O)N[C@@H](C)B(O)O)[C@@H](C)O [Compound 218] ({Propanoyl(3-decylamino)}-KTAK-boroAla) | >64 |  | 2.1 (≈ 2.88 µM)
CCCCCCCCCCNCCS(=O)(=O)N[C@@H](CCCCN)C(=O)N[C@H](C(=O)N[C@@H](C)C(=O)N[C@@H](CCCCN)C(=O)N[C@@H](C)C(=O)C(=O)O)[C@@H](C)O [Compound 251] ({Ethanesulfonyl(2-NHDecyl)}-KTAK-X22) | >64 |  | 0.5 (≈ 0.63 µM)
CCCCCCCCCCNCCC(=O)N[C@@H](CCCCN)C(=O)N[C@H](C(=O)N[C@@H](C)C(=O)N[C@@H](CCCCN)C(=O)N[C@@H](C)C(=O)C(=O)O)[C@@H](C)O [Compound 249] ({Propanoyl(3-decylamino)}-KTAK-X22) | >64 |  | 0.71 (≈ 0.938 µM)
CCCCc1ccc(-c2ccc(S(=O)(=O)N[C@@H](CCCCN)C(=O)N[C@H](C(=O)N[C@@H](C)C(=O)N[C@@H](CCCCN)C(=O)N[C@@H](C)B3O[C@@H]4C[C@@H]5C[C@@H](C5(C)C)[C@]4(C)O3)[C@@H](C)O)cc2)cc1 [Compound 236] (X34-KTAK-{boroAla((+)-pinanediol)}) | 16 (≈ 17.3 µM) | 0.5 (≈ 0.541 µM) | 
CC(C)C#CC#Cc1ccc(C(=O)N[C@@H](CCN)C(=O)N[C@H](C(=O)N[C@@H](C)C(=O)N[C@@H](CCCCN)C(=O)N[C@@H](C)B2O[C@@H]3C[C@@H]4C[C@@H](C4(C)C)[C@]3(C)O2)[C@@H](C)O)cc1 [Compound 263] (X36-[Dab]TAK-{boroAla((+)-pinanediol)}) | 0.25 (≈ 0.306 µM) | 0.71 (≈ 0.868 µM) | 
C[C@H](NC(=O)[C@H](CCCCN)NC(=O)[C@H](C)NC(=O)[C@@H](NC(=O)C(NC(=O)c1ccc(-c2ccc(Cl)cc2)cc1)C1CNC1)[C@@H](C)O)B1O[C@@H]2C[C@@H]3C[C@@H](C3(C)C)[C@]2(C)O1 (stereo partly shown) [Compound 281] | 8 (≈ 9.41 µM) | 4 (≈ 4.7 µM) | 
CCCCCCCCCCNCCN[C@@H](CC(N)=O)C(=O)N[C@H](C(=O)N[C@@H](C)C(=O)N[C@@H](CCCCN)C(=O)N[C@@H](C)B(O)O)[C@@H](C)O [Compound 243] | >64 |  | 1.4 (≈ 2.04 µM)
C[C@H](NC(=O)[C@@H](NC(=O)[C@H](CCN)NC(=O)c1ccc(-c2ccc(Cl)cc2)cc1)[C@@H](C)O)C(=O)N[C@@H](CCCCN)C(=O)N[C@@H](C)C(=O)C1CO1 (stereo partly shown) [Compound 216] ({Benzoyl(4-(4-Cl-Ph))}-[Dab]TAK-X7) | 16 (≈ 21.9 µM) |  | 1 (≈ 1.37 µM)
CCCCCCCCCCNCCC(=O)N[C@@H](CCCCN)C(=O)N[C@@H](C)C(=O)N[C@@H](CCCCN)C(=O)N[C@@H](C)B(O)O [Compound 269] | 11 (≈ 17.5 µM) | 0.35 (≈ 0.558 µM) | 
CCCCCCCCCCNCCC(=O)N[C@@H](CCCCN)C(=O)N[C@H](C(=O)N[C@@H](C)C(=O)N[C@@H](Cc1cnc[nH]1)C(=O)N[C@@H](C)B1O[C@@H]2C[C@@H]3C[C@@H](C3(C)C)[C@]2(C)O1)[C@@H](C)O [Compound 225] ({Propanoyl(3-decylamino)}-KTAH-{boroAla((+)-pinanediol)}) | 16 (≈ 18.3 µM) | 2 (≈ 2.29 µM) | 
CCCCCCCCCCNCC(=O)N[C@H](C(=O)N[C@@H](C)C(=O)N[C@@H](CCCCN)C(=O)N[C@@H](C)B1O[C@@H]2C[C@@H]3C[C@@H](C3(C)C)[C@]2(C)O1)[C@@H](C)O [Compound 229] (H-[NDecylGly]TAK-{boroAla((+)-pinanediol)}) | 64 (≈ 88.8 µM) | 1.3 (≈ 1.8 µM) | 
CCCCCCCCCCNCCC(=O)N[C@@H](CCCCN)C(=O)N[C@H](C(=O)N[C@@H](C)C(=O)N[C@@H](CN)C(=O)N[C@@H](C)C(=O)C(=O)OC)[C@@H](C)O [Compound 256] ({Propanoyl(3-decylamino)}-KTA[Dap]-AlaCOCOOMe) | >64 |  | 10 (≈ 13.7 µM)
CCCCCCCCCNCCCC(=O)N[C@@H](CCCCN)C(=O)N[C@H](C(=O)N[C@@H](C)C(=O)N[C@@H](CCCCN)C(=O)N[C@@H](C)B1O[C@@H]2C[C@@H]3C[C@@H](C3(C)C)[C@]2(C)O1)[C@@H](C)O [Compound 227] (X17-KTAK-{boroAla((+)-pinanediol)}) | 64 (≈ 74.2 µM) |  | 2 (≈ 2.32 µM)
C[C@H](NC(=O)[C@H](CCCCN)NC(=O)[C@H](C)NC(=O)[C@@H](NC(=O)[C@H](CCN)NC(=O)c1ccc(-c2ccc(Cl)cc2)cc1)[C@@H](C)O)B1OCCNCCO1 [Compound 131] ({Benzoyl(4-(4-Cl-Ph))}-[Dab]TAK-X37) |  | 1 (≈ 1.29 µM) | 
CCCCCCCCCCNCCC(=O)N[C@@H](CCCCN)C(=O)N[C@H](C(=O)N[C@@H](C)C(=O)N[C@@H](CCN)C(=O)N[C@@H](C)C(=O)C(=O)OC)[C@@H](C)O [Compound 254] ({Propanoyl(3-decylamino)}-KTA[Dab]-AlaCOCOOMe) |  |  | 16 (≈ 21.5 µM)
